# According to publication PMC7811808, “Design, synthesis, and biological evaluation of novel 5,6,7-trimethoxy quinolines as potential anticancer agents and tubulin polymerization inhibitors” (Iranian Journal of Basic Medical Sciences, 2020):
# Where two headings read alike, the source gives them in different places.
# Legend:
# A2780 = test: MTT antiproliferative activity assay; assay type: cell-based; conditions: Homo sapiens, 48 hr
# Experimental: (§1) The MTT assay was done by seeding 5.0×10^3 human cancer cells or normal cells per well in 96-well plates ([34]-[36]). Following overnight incubation of the cells in 5% CO2 at 37 °C, culture medium of each well was exchanged with medium having reference anti-cancer agent CA-4 as well as different concentrations of synthesized compounds and RPMI (no drug) negative control and cells were incubated 48 hr. Then MTT solution (25 μl, 4 mg ml ^-1) was added to each well and the cells were incubated at 37 °C (for 3 hr). Finally, formazan crystals were dissolved in DMSO (100 μl) and plates were read in a plate reader (Synergy H4, USA) at 540 nm. The cytotoxic activity of the synthesized compounds was evaluated against different human cancer cell lines including […]-7 and MCF-7/MX, and normal cells by MTT assay. Combretastatin A-4 (CA-4) was used as the positive control.
# A2780/RCIS = test: MTT antiproliferative activity assay; assay type: cell-based; conditions: Homo sapiens, read-out: IC50 A2780/RCIS
# Experimental: as §1
# MCF-7/MX = test: MTT antiproliferative activity assay; assay type: cell-based; conditions: Homo sapiens, MCF7/MX, read-out: IC50 MCF-7/MX
# Experimental: as §1
# MCF-7 = test: MTT antiproliferative activity assay; assay type: cell-based; conditions: Homo sapiens, MCF7, 48 hr
# Experimental: as §1
# HUVEC = test: MTT assay on normal cells; assay type: cell-based; conditions: Homo sapiens, 48 hr
# Experimental: as §1
# [1] = tested on: A2780, A2780/RCIS, MCF-7 and MCF-7/MX; test: MTT assay, statements over all four cancer cell lines; assay type: cell-based; conditions: Homo sapiens, range over four cell lines, read-out: IC50 values range against all four human cancer cells
# Experimental: as §1
# tubulin = target: T1, tubulin (Sus scrofa, UniProt P02550+P02554); test: In vitro tubulin polymerization assay (fluorescence kit); assay type: biochemical; conditions: compound 20 µM; CA-4 5 µM
# T1 construct: purchased cytoskeleton BK011P
# T1 sequence (P02550 whole entry): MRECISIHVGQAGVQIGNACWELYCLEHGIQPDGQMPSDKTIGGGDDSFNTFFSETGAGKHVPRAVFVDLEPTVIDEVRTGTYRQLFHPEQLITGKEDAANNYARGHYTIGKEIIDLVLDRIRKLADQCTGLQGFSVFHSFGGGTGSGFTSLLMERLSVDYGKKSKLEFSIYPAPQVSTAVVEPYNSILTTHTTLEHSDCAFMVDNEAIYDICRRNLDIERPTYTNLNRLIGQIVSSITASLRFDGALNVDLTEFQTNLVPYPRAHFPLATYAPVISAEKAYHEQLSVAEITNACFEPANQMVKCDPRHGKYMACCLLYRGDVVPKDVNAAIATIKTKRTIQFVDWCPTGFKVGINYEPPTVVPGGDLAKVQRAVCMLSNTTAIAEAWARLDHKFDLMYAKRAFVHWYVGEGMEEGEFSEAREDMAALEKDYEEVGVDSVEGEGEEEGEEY
# T1 sequence (P02554 whole entry): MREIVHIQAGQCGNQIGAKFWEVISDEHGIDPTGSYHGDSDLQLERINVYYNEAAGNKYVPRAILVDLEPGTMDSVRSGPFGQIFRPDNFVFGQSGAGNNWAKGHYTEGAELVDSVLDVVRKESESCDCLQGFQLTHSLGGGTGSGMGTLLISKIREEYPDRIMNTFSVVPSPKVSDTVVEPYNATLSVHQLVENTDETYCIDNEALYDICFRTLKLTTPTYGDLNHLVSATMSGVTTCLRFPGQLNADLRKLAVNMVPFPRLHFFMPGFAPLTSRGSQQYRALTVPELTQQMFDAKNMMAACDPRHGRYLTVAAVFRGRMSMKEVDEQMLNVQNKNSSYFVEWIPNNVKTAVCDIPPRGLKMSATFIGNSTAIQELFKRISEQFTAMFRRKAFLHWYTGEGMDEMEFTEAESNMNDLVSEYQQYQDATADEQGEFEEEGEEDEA
# Experimental: A commercial kit (cytoskeleton, cat. #BK011P) was used to evaluate the tubulin polymerization inhibition activity of compounds ([37]). Briefly, tubulin protein was added to tubulin buffer (80 mM PIPES, 2 mM MgCl2, 0.5 mM EGTA, 1 mM GTP, […], PH 6.9) and the acquired mixture was added to wells of a 96-well plate comprising the cytotoxic compounds or vehicle. Tubulin polymerization was observed by detecting the fluorescence augmentation due to the addition of a fluorescence reporter into microtubules as polymerization occurred. Polymerization was measured by excitation at 360 nm and emission at 420 nm for 1 hr at 1 min intervals in a plate reader (Synergy H4, USA). CA-4 (5 μM) and paclitaxel (3 μM) were used as positive destabilizing and positive stabilizing controls, respectively.
# In order to check if the cytotoxic activity of our quinolines was correlated to their ability to inhibit tubulin, compounds 7e and 7f and CA4 (polymerization suppressor) and paclitaxel (polymerization promoter) were assessed for their activity in a microtubule polymerization assay.
# MCF-7/MX cancer cells = test: Cell cycle analysis by flow cytometry (PI); assay type: cell-based, human; conditions: 48 hr
# Text: (§2) Flow cytometry with propidium iodide (PI) was used to analyze the cell numbers in the cell cycle phases. […] Flowjo software 7.6 was used to analyze the data regarding the cell numbers in different phases of the cell cycle.
# (§3) Tubulin inhibitors arrest cell cycle at the G2/M phase in cancer cells owing to destruction of the microtubular cytoskeleton. To get more understanding of the mechanism of action, the effects of compounds 7f and 7e on the cell cycle were examined by ﬂow cytometry in four human cancer cell lines (MCF-7, MCF-7/MX, A2780, and A2780/RCIS). […] When A2780 cancer cells were treated with 7f and 7e for 48 hr, the percentage of cells in the G2/M phase was 15.70% (7f, 1 μM), 17.74% (7f, 10 μM), 23.30% (7e, 5μM), and 4.15% (7e, 15μM) compared with the negative control (4.84%). Moreover, the percentage of A2780 cancer cells in the subG1 phase was 18.58% (7f, 10 μM) and 68.16% (7e, 15 μM).
# A2780 cancer cells = test: Cell cycle analysis by flow cytometry (PI); assay type: cell-based, human; conditions: 48 hr
# Text: as §2, §3
# A2780/RCIS cancer cells = test: Cell cycle analysis by flow cytometry (PI); assay type: cell-based, human; conditions: 48 hr
# Text: as §2, §3
# MCF-7 cancer cells = test: Cell cycle analysis by flow cytometry (PI); assay type: cell-based, human; conditions: 48 hr
# Text: as §2, §3
# A2780 cells = test: Apoptosis assay (Annexin V/PI staining); assay type: cell-based, human; conditions: 24 hr
# Experimental: A2780 cells ([…]) were seeded in six-well plates and incubated overnight. Then the medium was replaced with a complete medium containing compound 7e (3 and 15 µM concentrations). After 24 hr incubation, the cells were […] and washed with PBS and incubated with buffer including 10 mM HEPES, 140 mM NaCl, and 2.5 mM CaCl2 (pH 7.4) and also PI and annexin V-FITC at room temperature (20 min) ([38]). The samples were analyzed using a flow cytometer (Beckman Coulter), and the results were assessed using the Flowjo software.
# Then, to investigate the mode of cell death caused by 7e, flow cytometry was done using propidium iodide (PI) ([19]), which only colors DNA and only enter dead cells, and Annexin-V (the fluorescence probe), which binds to the early apoptotic cells selectively ([20]).
SMILES,IC50 (A2780),IC50 (MCF-7),"IC50 (A2780/RCIS; A2780, MTT, 48 hr)","IC50 (MCF-7/MX; MTT, 48 hr)",melting point,IC50 (HUVEC),also measured
"COc1ccc(/C=C\c2cc(OC)c(OC)c(OC)c2)cc1O [CA-4, Combretastatin A-4, reference compound]",0.249 ± 0.091 µM,0.438 ± 0.15 µM,,,,0.565 ± 0.26 µM,"IC50 (A2780/RCIS; A2780, 48 h): 0.229 ± 0.11 µM; IC50 (MCF-7/MX; 48 h): 1.49 ± 0.27 µM"
"COc1ccc(Nc2cc(C)nc3cc(OC)c(OC)c(OC)c23)cc1O [Compound 7d, 2-Methoxy-5-((5,6,7-trimethoxy-2-methylquinolin-4-yl)amino)phenol]",29.6 ± 2.98 µM,53.6 ± 3.66 µM,44.7 ± 2.76 µM,78.2 ± 5.37 µM,182 to 184 °C,62.7 ± 5.42 µM,
"COc1ccc(Nc2cc(C)nc3cc(OC)c(OC)c(OC)c23)cc1OC [Compound 7b, N-(3,4-dimethoxyphenyl)-5,6,7-trimethoxy-2-methylquinolin-4-amine]",27.1 ± 3.25 µM,63.7 ± 4.35 µM,51.5 ± 4.86 µM,62.8 ± 5.27 µM,182 to 185 °C,> 100 µM,
"COc1cc(Nc2cc(C)nc3cc(OC)c(OC)c(OC)c23)cc(OC)c1OC [Compound 7c, 5,6,7-Trimethoxy - 2-methyl - -N-(3,4,5-methoxyphenyl) quinolin-4-amine]",80.2 ± 5.23 µM,> 100 µM,> 100 µM,69.8 ± 4.85 µM,175 to 178 °C,> 100 µM,
COc1cc2nc(C)cc(Nc3ccc(C(=O)c4ccccc4)cc3)c2c(OC)c1OC [Compound 7e],11.3 ± 1.47 µM,33 ± 2.51 µM,6.66 ± 1.35 µM,10.9 ± 1.28 µM,,> 100 µM,"IC50 [1]: 5.02 to 35.8 µM; tubulin polymerization inhibition (tubulin): inhibited tubulin polymerization in a way similar to that of CA-4; G2/M (MCF-7/MX cancer cells; 1 μM): 25.41%; G2/M (MCF-7/MX cancer cells; 10 μM): 37.85%; G2/M (A2780 cancer cells; A2780, 5 μM): 23.30%; G2/M (A2780 cancer cells; A2780, 15 μM): 4.15%; SubG1 (A2780 cancer cells; A2780, 15 μM): 68.16%; G2/M (A2780/RCIS cancer cells; 1 μM): 24.91%; G2/M (A2780/RCIS cancer cells; 5 μM): 25.93%; G2/M (MCF-7 cancer cells; MCF-7, 20 μM): 25.91%; G2/M (MCF-7 cancer cells; MCF-7, 30 μM): 34.45%; total apoptotic cells including early and late apoptotic cells (A2780 cells; A2780, 3 µM): 8.02%; total apoptotic cells including early and late apoptotic cells (A2780 cells; A2780, 15 µM): 28.57%"
"COc1cc2nc(C)cc(Nc3ccc(Oc4ccccc4)cc3)c2c(OC)c1OC [Compound 7f, 5,6,7-Trimethoxy-2-methyl-N-(4-phenoxyphenyl)quinolin-4-amine]",8.43 ± 1.85 µM,10.1 ± 1.63 µM,5.02 ± 1.14 µM,9.04 ± 1.2 µM,192 to 195 °C,8.9 ± 1.26 µM,"IC50 [1]: 5.02 to 35.8 µM; tubulin polymerization inhibition (tubulin): inhibited tubulin polymerization in a way similar to that of CA-4; G2/M (MCF-7/MX cancer cells; 10 μM): 23.73%; G2/M (MCF-7/MX cancer cells; 20 μM): 29.37%; G2/M (A2780 cancer cells; A2780, 1 μM): 15.70%; G2/M (A2780 cancer cells; A2780, 10 μM): 17.74%; SubG1 (A2780 cancer cells; A2780, 10 μM): 18.58%; G2/M (A2780/RCIS cancer cells; 1 μM): 20.68%; G2/M (A2780/RCIS cancer cells; 5 μM): 19.38%; G2/M (MCF-7 cancer cells; MCF-7, 1 μM): 19.01%; G2/M (MCF-7 cancer cells; MCF-7, 10 μM): 24.01%"
"COc1ccc(Nc2cc(C)nc3cc(OC)c(OC)c(OC)c23)cc1 [Compound 7a, 5,6,7-Trimethoxy-N-(4-methoxyphenyl)-2-methylquinolin-4-amine]",16.4 ± 2.13 µM,55.3 ± 5.37 µM,29.9 ± 2.87 µM,65.9 ± 4.42 µM,191 to 194 °C,55.9 ± 3.87 µM,
"COc1cc2nc(C)cc(Nc3ccccc3Oc3ccccc3)c2c(OC)c1OC [Compound 7g, 5,6,7-Trimethoxy-2-methyl-N-(2-phenoxyphenyl)quinolin-4-amine]",12.1 ± 2.17 µM,35.8 ± 3.29 µM,10.1 ± 2.25 µM,16.3 ± 2.39 µM,150 to 153 °C,27.7 ± 2.63 µM,IC50 [1]: 5.02 to 35.8 µM

# Second part, led by results:
IC50 (A2780),IC50 (MCF-7),"IC50 (A2780/RCIS; A2780, MTT, 48 hr)","IC50 (MCF-7/MX; MTT, 48 hr)",melting point,SMILES,IC50 (HUVEC),also measured
> 100 µM,> 100 µM,> 100 µM,> 100 µM,153 to 155 °C,"COc1cc2nc(/C=C/c3ccc(C)cc3)cc(Cl)c2c(OC)c1OC [Compound 9b, E-4-Chloro-5,6,7-trimethoxy-2-(4-methylstyryl)quinoline]",> 100 µM,
> 100 µM,> 100 µM,> 100 µM,> 100 µM,162 to 164 °C,"COc1cc2nc(/C=C/c3ccc([N+](=O)[O-])cc3)cc(Cl)c2c(OC)c1OC [Compound 9g, E-4-Chloro-5,6,7-trimethoxy-2-(4-nitrostyryl)quinoline]",> 100 µM,
47.9 ± 4.25 µM,> 100 µM,11.7 ± 2.63 µM,28 ± 2.64 µM,163 to 165 °C,"COc1cc(/C=C/c2cc(Cl)c3c(OC)c(OC)c(OC)cc3n2)cc(OC)c1OC [Compound 9f, E-4-Chloro-5,6,7-trimethoxy-2-(3,4,5-trimethoxystyryl)quinoline]",> 100 µM,
30.5 ± 3.22 µM,63.7 ± 5.27 µM,46.2 ± 3.57 µM,64.6 ± 5.29 µM,110 to 113 °C,"COc1cc2nc(/C=C/c3ccccc3)cc(Cl)c2c(OC)c1OC [Compound 9a, E-4-Chloro-5,6,7-trimethoxy-2-styrylquinoline]",74 ± 5.95 µM,
39.9 ± 3.74 µM,42.8 ± 3.48 µM,33.8 ± 3.48 µM,44.1 ± 3.57 µM,,"COc1ccc(/C=C/c2cc(Cl)c3c(OC)c(OC)c(OC)cc3n2)cc1 [Compound 9d, E-4-Chloro-5,6,7-trimethoxy-2-(4-methoxystyryl)quinoline]",96.2 ± 5.38 µM,
> 100 µM,> 100 µM,> 100 µM,> 100 µM,173 to 176 °C,"COc1cc2nc(/C=C/c3ccc(F)cc3)cc(Cl)c2c(OC)c1OC [Compound 9c, E-4-Chloro-5,6,7-trimethoxy-2-(4-fluorostyryl)quinoline]",> 100 µM,
> 100 µM,> 100 µM,> 100 µM,> 100 µM,122 to 124 °C,"COc1ccc(/C=C/c2cc(Cl)c3c(OC)c(OC)c(OC)cc3n2)cc1OC [Compound 9e, E-4-Chloro-5,6,7-trimethoxy-2-(3,4-dimethoxystyryl)quinoline]",> 100 µM,
